Ratio Ki and Ki data for 18 compounds are collected here from ChEMBL document CHEMBL1152852, “Substituted benzo[d]oxazol-2(3H)-one derivatives with preference for the sigma1 binding site” (Eur J Med Chem, 2009).

The structures appear in SMILES notation.

The species entered for assay [1] is Rattus norvegicus. Briefly: Selectivity ratio of Ki for rat liver sigma 2 receptor to Ki for rat liver sigma 1 receptor.
For assay [2], the target named is Sigma non-opioid intracellular receptor 1 (Rattus norvegicus, UniProt Q9R0C9). Briefly: Displacement of [3H](+)-pentazocine from sigma 1 receptor in rat liver membrane. Type of assay: cell membranes. (In general: Displacement assays read how much labelled ligand stays bound in the presence of the test substance.)
The nature of assay [3]: Displacement of [3H]DTG from sigma 2 receptor in rat liver membrane. Type of assay: cell membranes.

Sequence of Sigma non-opioid intracellular receptor 1 (Q9R0C9 whole entry): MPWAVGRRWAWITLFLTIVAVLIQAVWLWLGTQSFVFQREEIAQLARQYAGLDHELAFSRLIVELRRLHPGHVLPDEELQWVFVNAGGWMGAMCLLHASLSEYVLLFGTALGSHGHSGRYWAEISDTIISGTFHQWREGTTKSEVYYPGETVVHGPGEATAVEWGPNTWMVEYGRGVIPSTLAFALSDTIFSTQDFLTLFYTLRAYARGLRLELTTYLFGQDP

As to `O=c1oc2ccccc2n1CC1CCN(Cc2ccc(Cl)cc2Cl)CC1`, the Ratio Ki in assay [1] was determined as 1.5. Also, the Ki in assay [2] came out at 0.258 µM; in assay [3], 0.382 µM.
The compound `CC(C)=CCN1CC[C@]2(C)c3cc(O)ccc3C[C@H]1[C@H]2C` [(+)-PENTAZOCINE] yielded a Ki in assay [3] of 0.327 µM.
Turning to `O=c1oc2ccccc2n1CC1CCN(Cc2ccc(-c3ccccc3)cc2)CC1`, the Ratio Ki in assay [1] is greater than 25. Moreover, the Ki in assay [2] is 0.394 µM; in assay [3], greater than 10 µM.
For `Cc1cc(C)c(CN2CCC(Cn3c(=O)oc4ccccc43)CC2)c(C)c1`, the Ratio Ki in assay [1] was 0.5. In addition, the results for the Ki in assay [2] and in assay [3] were 6.23 µM and 2.88 µM, respectively.
In turn, `O=c1oc2ccccc2n1CC1CCN(Cc2ccccc2)CC1` yielded a Ki in assay [3] of 0.246 µM.
With `Cc1ccc(CN2CCC(Cn3c(=O)oc4ccccc43)CC2)c(C)c1`, the Ratio Ki in assay [1] was 6. Besides, the Ki in assay [2] turned out to be 0.03 µM; in assay [3] it was 0.187 µM.
`O=C(CCCN1CCC(O)(c2ccc(Cl)cc2)CC1)c1ccc(F)cc1` [HALOPERIDOL] came in with a Ki in assay [3] of 0.235 µM.
In assay [3], `O=c1oc2ccccc2n1CC1CCN(Cc2ccccc2Cl)CC1` gave a Ki of 0.299 µM.
`Cc1ccc(CN2CCC(Cn3c(=O)oc4ccccc43)CC2)cc1`: the Ratio Ki in assay [1] was found to be 40. The Ki in assay [2] is 0.0029 µM; in assay [3] it was 0.116 µM.
Take `O=c1oc2ccccc2n1CC1CCN(Cc2cccc3ccccc23)CC1`: in assay [3], affinity was put at a Ki of 1.29 µM.
For `O=c1oc2ccccc2n1CC1CCN(Cc2ccc(F)cc2)CC1`, the Ratio Ki in assay [1] turned out to be 44. Further, the Ki in assay [2] came to 0.0039 µM; in assay [3] it was 0.17 µM.
Regarding `Cc1ccccc1NC(=N)Nc1ccccc1C` [DITOLYLGUANIDINE], the Ki in assay [3] is 0.13 µM.
On to `CN(CCCc1cn(-c2ccc(F)cc2)c2ccccc12)Cc1ccccc1`, for which the Ratio Ki in assay [1] is 22. In addition, in assay [3], the Ki stood at 0.0059 µM.
For `CCC(=O)c1ccc2c(c1)oc(=O)n2CCCN1CCCCC1`, the Ratio Ki in assay [1] amounted to 58. In assay [3], this compound yielded a Ki of 0.0085 µM.
In assay [3], `O=c1oc2ccccc2n1CC1CCN(Cc2ccc(Cl)cc2)CC1` came in with a Ki of 0.427 µM.
Consider `O=c1oc2ccccc2n1CC1CCN(Cc2ccccc2F)CC1`, for which, in assay [1], the Ratio Ki came out at 9. For the same compound, the inhibitory constant (Ki) amounted to 0.023 µM in assay [2] and 0.213 µM in assay [3].
Regarding `Cc1ccc(CN(C)CCCCc2cn(-c3ccc(F)cc3)c3ccccc23)c(C)c1`, in assay [1], the Ratio Ki came to 0.05. Further, in assay [3], affinity was put at a Ki of 0.0059 µM.
For `Cc1ccccc1CN1CCC(Cn2c(=O)oc3ccccc32)CC1`, the Ratio Ki in assay [1] worked out at 10. Moreover, the Ki in assay [2] was 0.033 µM; in assay [3], 0.338 µM.

As usually defined, the Ki is the equilibrium dissociation constant of an inhibitor or competing ligand from its target.
